Experimental data published in US4330529A, “Antibacterial composition” (Fujisawa Pharmaceutical Co., Ltd., priority 1979, dated 1982).

How the values were obtained:
[1] = system: Pseudomonas aeruginosa 1101-68; test: MIC and FIC, Nutrient broth (Test 1); format: cell-based
Experimental: (§1) Further, in order to observe the degree of synergistic antimicrobial activity, Fractional Inhibitory Concentration (FIC) values and FIC Index were calculated from the determined MIC values according to the following calculation method, respectively.
(§2) In the case that the combination ratio of a mixture of monosodium salt of 3-(N-acetyl-N-hydroxyamino)propylphosphonic acid and monosodium salt of nocardicin A is m:n (by weight), each of FIC values and FIC indexes was calculated according to the following equations. [formula]

[2] = system: Serratia marcescens 1421-5; test: MIC and FIC, Nutrient broth (Test 1); format: cell-based
Experimental: as §1, §2

[3] = system: Klebsiella pneumoniae 1391-5; test: MIC and FIC, Nutrient broth (Test 1); format: cell-based
Experimental: as §1, §2

[4] = system: Pseudomonas aeruginosa 1101-64; test: MIC and FIC, Nutrient broth (Test 1); format: cell-based
Experimental: as §1, §2

[5] = system: Pseudomonas aeruginosa 1101-67; test: MIC and FIC, Nutrient broth (Test 1); format: cell-based
Experimental: as §1, §2

[6] = system: Klebsiella pneumoniae 1391-2; test: MIC and FIC, Nutrient broth (Test 1); format: cell-based
Experimental: as §1, §2

[7] = system: Escherichia coli 1341-35; test: MIC and FIC, Nutrient broth (Test 1); format: cell-based
Experimental: as §1, §2

[8] = system: Klebsiella pneumoniae 1391-3; test: MIC and FIC, Nutrient broth (Test 1); format: cell-based
Experimental: as §1, §2

[9] = system: Escherichia coli 1341-27; test: MIC and FIC, Nutrient broth (Test 1); format: cell-based
Experimental: as §1, §2

[10] = system: Pseudomonas aeruginosa 1101-66; test: MIC and FIC, Nutrient broth (Test 1); format: cell-based
Experimental: as §1, §2

[11] = system: Pseudomonas aeruginosa 1101-7; format: in vivo, mice (ICR-strain male); details: P. aeruginosa 1101-7
Experimental: (§3) ICR-strain male mice weighing 23-25 g (10 mice per one group) were used. A prescribed amount of the pathogenic bacteria suspended in 5% aqueous mucin suspension (0.5 ml.) was inoculated intraperitoneally into each mouse. One hour after the inoculation, the antibiotics as mentioned in the following table were administered subcutaneously, and then survival of the test mice was measured one week after the infection to determine ED50 value.
(§4) Incidentally, FIC values and FIC index in this in vivo test also calculated from the determined ED50 values according to the following calculation method.
(§5) On the basis of the fact that the combination ratio of a mixture of monosodium salt of 3-(N-acetyl-N- hydroxyamino)propylphosphonic acid and monosodium salt of nocardicin A is 1:1 (by weight), each of FIC values and FIC index was calculated according to the following equations.
(§6) FIC of monosodium salt of 3-(N-acetyl-N-hydroxyamino)propylphosphonic acid=1/2 C'ab/A'o
(§7) FIC of monosodium salt of nocardicin A=1/2 C'ab/B'o
(§8) FIC index=1/2 C'ab/A'o+1/2 C'ab/B'o

[12] = system: Pseudomonas aeruginosa 1101-5; format: in vivo, mice (ICR-strain male); details: P. aeruginosa 1101-5
Experimental: as §3, §4, §5, §6, §7, §8

[13] = system: Pseudomonas aeruginosa 1101-63; test: microbe, parasite or virus in culture; format: cell-based
Experimental: as §1, §2

[14] = system: Serratia marcescens 1421-4; test: microbe, parasite or virus in culture; format: cell-based
Experimental: as §1, §2

[15] = system: Klebsiella pneumoniae 1391-1; test: microbe, parasite or virus in culture; format: cell-based
Experimental: as §1, §2

[16] = system: Serratia marcescens 1421-3; test: microbe, parasite or virus in culture; format: cell-based
Experimental: as §1, §2

[17] = system: Serratia marcescens 1421-1; test: microbe, parasite or virus in culture; format: cell-based
Experimental: as §1, §2

[18] = system: Staphylococcus aureus 3; test: MIC and FIC, Nutrient agar (Tests 6, 7); format: cell-based; details: Staphylococcus aureus; S. aureus 3; 18 h; read-out: MIC
Experimental: (§9) FIC values and FIC Index were calculated in substantially the same manner as described in Test 1.

[19] = system: Enterobacter aerogenes 7; test: MIC and FIC, Nutrient agar (Tests 6, 7, 9); format: cell-based; details: Klebsiella aerogenes; E. aerogenes 7; 18 h; read-out: MIC
Experimental: as §9

[20] = system: Citrobacter freundii 35; test: MIC and FIC, Nutrient agar (Tests 6, 7, 9); format: cell-based; details: Citrobacter freundii, 35, 18 h
[21] = s.c. 1 h after i.p. inoculation, survival at one week

CC(=O)N(O)CCCP(=O)(O)O [A (Table 1), 3-(N-acetyl-N-hydroxyamino)propylphosphonic acid] was tested, and the FIC ([1]; P. aeruginosa 1101-68, in 1:1 mixture C) was 0.031, the MIC ([1]; Pseudomonas aeruginosa, 110168, 20 h) was 800 µg/mL and the FIC ([2]; S. marcescens 1421-5, in 1:1 mixture C) was < 0.016. For the same compound, the MIC ([2]; Serratia marcescens, 14215, 20 h) was > 800 µg/mL, the FIC ([3]; K. pneumoniae 1391-5, in 1:1 mixture C) was 0.250 and the MIC ([3]; Klebsiella pneumoniae, 13915, 20 h) was 400 µg/mL. The FIC ([4]; P. aeruginosa 1101-64, in 1:1 mixture C) was < 0.031, the MIC ([4]; Pseudomonas aeruginosa, 110164, 20 h) was > 800 µg/mL and the FIC ([5]; P. aeruginosa 1101-67, in 1:1 mixture C) was 0.250. For the same compound, the MIC ([5]; Pseudomonas aeruginosa, 110167, 20 h) was 200 µg/mL, the FIC ([6]; K. pneumoniae 1391-2, in 1:1 mixture C) was < 0.250 and the MIC ([6]; Klebsiella pneumoniae, 13912, 20 h) was > 800 µg/mL. It also gave an FIC ([7]; E. coli 1341-35, in 1:1 mixture C) of 0.250, an MIC ([7]; Escherichia coli, 134135, 20 h) of 100 µg/mL and an FIC ([8]; K. pneumoniae 1391-3, in 1:1 mixture C) of 0.250. The MIC ([8]; Klebsiella pneumoniae, 13913, 20 h) was 800 µg/mL, the FIC ([9]; E. coli 1341-27, in 1:1 mixture C) was 0.125 and the MIC ([9]; Escherichia coli, 134127, 20 h) was 200 µg/mL. The FIC ([10]; P. aeruginosa 1101-66, in 1:1 mixture C) was 0.125, the MIC ([10]; Pseudomonas aeruginosa, 110166, 20 h) was 200 µg/mL and the FIC ([11]; in 1:1 mixture C, from ED50) was < 0.063. The ED50 [11, 21] was > 20 mg/mouse, the FIC ([12]; in 1:1 mixture C, from ED50) was < 0.018 and the ED50 [12, 21] was > 20 mg/mouse. The FIC ([13]; P. aeruginosa 1101-63, in 1:1 mixture C) was 0.063, the MIC ([13]; Pseudomonas aeruginosa, 110163, 20 h) was 800 µg/mL and the FIC ([14]; S. marcescens 1421-4, in 1:1 mixture C) was < 0.031. For the same compound, the MIC ([14]; Serratia marcescens, 14214, 20 h) was > 800 µg/mL, the FIC ([15]; K. pneumoniae 1391-1, in 1:1 mixture C) was 0.125 and the MIC ([15]; Klebsiella pneumoniae, 13911, 20 h) was 400 µg/mL. For the same compound, the FIC ([16]; S. marcescens 1421-3, in 1:1 mixture C) was < 0.063, the MIC ([16]; Serratia marcescens, 14213, 20 h) was > 800 µg/mL and the FIC ([17]; S. marcescens 1421-1, in 1:1 mixture C) was < 0.008. For the same compound, the MIC ([17]; Serratia marcescens, 14211, 20 h) was > 800 µg/mL.

NC[C@H]1O[C@H](O[C@H]2[C@H](O)[C@@H](O[C@H]3O[C@H](CO)[C@@H](O)[C@H](N)[C@H]3O)[C@H](N)C[C@@H]2N)[C@H](N)C[C@@H]1O [B (Table 9), Tobramycin] was tested, and the MIC [18] was 0.39 µg/mL, the MIC [19] was 6.25 µg/mL and the MIC [20] was 3.13 µg/mL.
